Measurements reported in patent US20120277161A1, “INHIBITION OF MULTIPLE CELL ACTIVATION PATHWAYS” (INTER-K PTY LIMITED, priority 2009, published 2012).

What was measured:
PI3K P110δ = PI3K P110δ (Homo sapiens, UniProt O00329); assay: PI3K HTRF activity assay; format: biochemical
Protocol: (§1) In a final reaction volume of 20 μL, the test PI3K is incubated in assay buffer containing 10 μM phosphatidylinositol-4,5-bisphosphate and MgATP. The reaction is initiated by the addition of the MgATP mix. After incubation for 30 minutes at room temperature, the reaction is stopped by the addition of 5 μL of stop solution containing EDTA and biotinylated phosphatidylinositol-3,4,5-trisphosphate. Finally, 5 μL of detection buffer is added (containing europium-labelled anti-GST monoclonal antibody, GST-tagged GRP1 PH domain and streptavidin-allophycocyanin). The test plate is then read in time-resolved fluorescence mode and the homogenous time-resolved fluorescence (HTRF) signal is determined according to the formula HTRF=10000×(Em665 nm/Em620 nm).

PI3K beta = PI3K beta (Homo sapiens, UniProt P42338); assay: PI3K HTRF activity assay; format: biochemical
Sequence of PI3K beta (P42338 whole entry, species assumed): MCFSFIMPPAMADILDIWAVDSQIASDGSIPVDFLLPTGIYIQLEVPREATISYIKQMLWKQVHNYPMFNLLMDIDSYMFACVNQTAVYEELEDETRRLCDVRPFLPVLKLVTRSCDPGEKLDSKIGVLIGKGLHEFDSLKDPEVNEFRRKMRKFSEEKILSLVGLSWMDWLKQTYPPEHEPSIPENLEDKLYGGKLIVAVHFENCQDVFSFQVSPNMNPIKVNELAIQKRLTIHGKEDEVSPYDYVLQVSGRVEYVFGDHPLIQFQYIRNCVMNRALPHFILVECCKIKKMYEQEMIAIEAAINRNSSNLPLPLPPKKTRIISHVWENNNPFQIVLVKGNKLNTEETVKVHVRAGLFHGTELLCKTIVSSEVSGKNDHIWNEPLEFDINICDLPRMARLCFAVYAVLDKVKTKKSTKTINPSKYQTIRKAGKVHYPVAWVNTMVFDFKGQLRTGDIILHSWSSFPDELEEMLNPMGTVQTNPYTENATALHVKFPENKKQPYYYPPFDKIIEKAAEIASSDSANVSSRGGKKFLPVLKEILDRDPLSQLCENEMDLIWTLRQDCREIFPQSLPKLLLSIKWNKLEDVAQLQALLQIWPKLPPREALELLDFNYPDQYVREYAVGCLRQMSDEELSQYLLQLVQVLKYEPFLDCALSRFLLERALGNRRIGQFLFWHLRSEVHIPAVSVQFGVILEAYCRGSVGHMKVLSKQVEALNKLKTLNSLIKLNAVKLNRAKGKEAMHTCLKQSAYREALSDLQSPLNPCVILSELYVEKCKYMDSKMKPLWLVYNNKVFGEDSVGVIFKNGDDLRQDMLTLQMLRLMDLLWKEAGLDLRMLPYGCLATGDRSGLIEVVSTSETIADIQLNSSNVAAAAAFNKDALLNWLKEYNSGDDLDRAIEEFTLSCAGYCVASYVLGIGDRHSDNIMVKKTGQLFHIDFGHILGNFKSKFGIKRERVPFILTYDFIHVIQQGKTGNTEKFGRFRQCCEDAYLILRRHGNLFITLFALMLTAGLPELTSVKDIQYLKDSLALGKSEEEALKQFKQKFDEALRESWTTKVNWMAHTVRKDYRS
Sequence of PI3K beta (P27986 whole entry partner, species assumed): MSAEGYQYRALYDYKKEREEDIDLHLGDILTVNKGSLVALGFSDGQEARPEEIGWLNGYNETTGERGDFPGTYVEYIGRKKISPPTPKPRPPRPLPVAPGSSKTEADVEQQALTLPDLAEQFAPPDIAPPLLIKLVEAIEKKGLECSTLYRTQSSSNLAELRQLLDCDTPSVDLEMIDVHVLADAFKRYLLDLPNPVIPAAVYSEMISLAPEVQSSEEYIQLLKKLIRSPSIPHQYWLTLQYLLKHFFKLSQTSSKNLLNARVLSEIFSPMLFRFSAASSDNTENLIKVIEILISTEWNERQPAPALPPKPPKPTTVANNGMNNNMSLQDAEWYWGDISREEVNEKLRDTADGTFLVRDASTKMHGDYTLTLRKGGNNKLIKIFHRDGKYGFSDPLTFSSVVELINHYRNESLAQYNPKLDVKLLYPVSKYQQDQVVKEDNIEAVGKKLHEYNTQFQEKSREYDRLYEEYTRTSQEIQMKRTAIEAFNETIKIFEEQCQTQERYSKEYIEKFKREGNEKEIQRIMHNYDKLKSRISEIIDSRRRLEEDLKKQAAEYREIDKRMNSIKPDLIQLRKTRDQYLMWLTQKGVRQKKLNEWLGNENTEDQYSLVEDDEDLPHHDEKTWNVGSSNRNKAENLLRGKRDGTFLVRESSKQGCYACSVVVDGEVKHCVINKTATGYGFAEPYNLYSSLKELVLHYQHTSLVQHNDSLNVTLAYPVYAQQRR
Protocol: as §1

human ERK2 = human ERK2 (Homo sapiens, UniProt P28482); assay: ERK2 kinase activity assay (cell-free); format: biochemical
Protocol: (§2) In a final reaction volume of 25 μL, human ERK2 (5-10 mU) is incubated with 25 mM Tris pH 7.5, 0.02 mM EGTA, 0.33 mg/mL myelin basic protein, 10 mM MgAcetate and [γ-33P-ATP] (specific activity approx. 500 cpm/pmol, concentration as required). The reaction is initiated by the addition of the MgATP mix. After incubation for 40 minutes at room temperature, the reaction is stopped by the addition of 5 μL of a 3% phosphoric acid solution. 10 μL of the reaction is then spotted onto a P30 filtermat and washed three times for 5 minutes in 75 mM phosphoric acid and once in methanol prior to drying and scintillation counting.

[1] = tested on: HT29 human colon cancer cells; assay: Cell proliferation (MTT) assay, HT29 cells; format: cell-based; conditions: MTT, 48 hours
Protocol: 6.1 Cell Proliferation (MTT) Assay Single cell suspensions of viable trypsinised cells were seeded into 96-well tissue culture plates at a density of 2×10^3 cells per well in a volume of 100 μl of a suitable culture media supplemented with heat inactivated foetal calf serum (FCS) (e.g., Dulbecco's Modified Eagles Medium (DMEM), with 10% v/v FCS, 1% L-glutamine, 2% (v/v) Hepes, and antibiotics). A set of triplicate wells was prepared for each concentration of the peptide dendrimer being tested. Additional sample wells containing untreated cells or media alone were set up in each treatment plate and processed in parallel as reference controls. A zero-time plate of untreated cells and media-alone wells was simultaneously prepared and an MTT assay carried out on this plate at the time of addition of the kinase inhibitor (i.e., polypeptide or dendrimer) to treatment plates. All plates were cultured for 24 hours before addition of the test dendrimer.
To prepare the MTT solution 100 mg of MTT (3-(4,5-dimethylthiazolyl-2)-2,5-diphenyltetrazolium bromide) (Cat #. M-128, Sigma, St Louis Mo.), is mixed with 20 ml of PBS at pH 7.4. The resulting solution is filter sterilized (0.2 μM syringe filter) and stored at 4° C. protected from light until use. MTT substrate is cleaved in growing cells to yield a water insoluble salt. After solubilisation of the salt crystals, a coloured product is produced the measurement of which allows quantitation of the proliferative activity of the cultured cells.
Appropriate concentrations of the kinase inhibitor were prepared by dilution of freshly prepared sterile 1 mM stock solutions into cell culture media to give a final well volume of 200 μl containing 10% v/v FCS. The zero-plate was processed by addition of MTT at this time. Cell culture was continued for a further 24 or 48 hours before addition of 20 μl of MTT in PBS (5 mg/ml, 0.2 um filter sterilised). The MTT cell proliferation assay measures cell proliferation rate and, in instances where cell viability is compromised, the assay indicates a comparative reduction in cell viability. After a 3 hour incubation in the presence of MTT (5% CO2 in air at 37° C.), plates were centrifuged at 450 g for 5 minutes, supernatant was removed by gentle suction and precipitated tetrazolium salt resuspended into 150 μl DMSO:glycine (0.1M glycine, 0.1M NaCl pH 10.5) (6:1 v/v) solution. Plates were gently vortexed to complete solubilisation of crystalline material and absorbance was read at 550 nm using a microplate reader. Sample data were processed to determine the comparative growth of treated samples relative to untreated controls.
HT29 cells were cultured for 48 hours in the presence of selected dendrimers and proliferation of the cells was assessed by MTT assay essentially as described in Example 6.1. The results were calculated as percentage proliferation of control cells (not treated with dendrimer).

PKC beta I = PKC beta I (Homo sapiens, UniProt P05771); assay: PKC kinase activity assay; format: biochemical
Sequence of PKC beta I (P05771 whole entry): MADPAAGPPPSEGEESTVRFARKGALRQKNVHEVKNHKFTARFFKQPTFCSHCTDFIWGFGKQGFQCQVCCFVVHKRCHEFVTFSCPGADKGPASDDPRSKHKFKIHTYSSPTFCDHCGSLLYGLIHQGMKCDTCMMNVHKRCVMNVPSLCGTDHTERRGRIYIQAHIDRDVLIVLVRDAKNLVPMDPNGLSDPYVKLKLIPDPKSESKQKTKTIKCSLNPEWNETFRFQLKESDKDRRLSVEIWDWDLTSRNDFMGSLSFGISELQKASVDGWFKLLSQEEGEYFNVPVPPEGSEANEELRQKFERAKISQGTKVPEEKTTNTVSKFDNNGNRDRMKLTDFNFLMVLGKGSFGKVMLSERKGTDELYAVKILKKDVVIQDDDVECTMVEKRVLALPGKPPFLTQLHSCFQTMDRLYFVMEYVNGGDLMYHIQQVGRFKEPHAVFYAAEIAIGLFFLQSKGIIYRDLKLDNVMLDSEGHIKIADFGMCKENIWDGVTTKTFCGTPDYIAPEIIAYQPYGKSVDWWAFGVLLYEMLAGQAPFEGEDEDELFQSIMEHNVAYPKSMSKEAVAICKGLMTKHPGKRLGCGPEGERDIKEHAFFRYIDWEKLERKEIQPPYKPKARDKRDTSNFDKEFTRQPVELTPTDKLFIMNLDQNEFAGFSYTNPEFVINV
Protocol: as §2, with “[…] PKC kinase (h)” for “25 μL, human ERK2”, “with 20” for “with 25”, “mM HEPES” for “mM Tris”, “pH 7.4, 0.03% Triton X-100, […], 0.1” for “pH 7.5, 0.02 mM EGTA, 0.33”, “mg/mL phosphatidylserine, 10 μg/mL diacylglycerol, 0.1 mg/mL histone H1 or 50 μM of the peptide ERMRPRKRQGSVRRRV (SEQ ID No. 20),” for “mg/mL myelin basic protein,”

PKC alpha = PKC alpha (Homo sapiens, UniProt P17252); assay: PKC kinase activity assay; format: biochemical
Protocol: as §2, with “[…] PKC kinase (h)” for “25 μL, human ERK2”, “with 20” for “with 25”, “mM HEPES” for “mM Tris”, “pH 7.4, 0.03% Triton X-100, […], 0.1” for “pH 7.5, 0.02 mM EGTA, 0.33”, “mg/mL phosphatidylserine, 10 μg/mL diacylglycerol, 0.1 mg/mL histone H1 or 50 μM of the peptide ERMRPRKRQGSVRRRV (SEQ ID No. 20),” for “mg/mL myelin basic protein,”

PKC beta II = PKC beta II (Homo sapiens, UniProt P05771); assay: PKC kinase activity assay; format: biochemical
Sequence of PKC beta II (P05771 1-673 isoform P05771-2): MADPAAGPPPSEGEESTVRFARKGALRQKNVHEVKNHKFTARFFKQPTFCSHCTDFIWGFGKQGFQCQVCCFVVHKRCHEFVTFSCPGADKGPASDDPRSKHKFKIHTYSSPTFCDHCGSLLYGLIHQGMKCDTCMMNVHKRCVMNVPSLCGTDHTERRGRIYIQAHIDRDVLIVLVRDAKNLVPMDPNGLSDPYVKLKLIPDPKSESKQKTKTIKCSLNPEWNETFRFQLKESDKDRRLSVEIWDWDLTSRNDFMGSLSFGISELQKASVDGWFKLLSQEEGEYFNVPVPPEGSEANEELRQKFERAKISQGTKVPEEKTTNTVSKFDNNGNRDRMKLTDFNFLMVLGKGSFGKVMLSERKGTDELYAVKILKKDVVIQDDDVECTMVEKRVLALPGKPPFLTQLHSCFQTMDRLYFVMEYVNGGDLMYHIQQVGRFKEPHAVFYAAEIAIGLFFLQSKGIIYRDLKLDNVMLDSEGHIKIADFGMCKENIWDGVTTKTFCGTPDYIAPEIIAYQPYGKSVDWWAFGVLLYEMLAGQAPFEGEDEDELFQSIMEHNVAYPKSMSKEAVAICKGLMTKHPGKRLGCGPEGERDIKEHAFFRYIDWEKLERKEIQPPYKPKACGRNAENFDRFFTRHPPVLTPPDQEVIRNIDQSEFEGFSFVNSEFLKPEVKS
Protocol: as §2, with “[…] PKC kinase (h)” for “25 μL, human ERK2”, “with 20” for “with 25”, “mM HEPES” for “mM Tris”, “pH 7.4, 0.03% Triton X-100, […], 0.1” for “pH 7.5, 0.02 mM EGTA, 0.33”, “mg/mL phosphatidylserine, 10 μg/mL diacylglycerol, 0.1 mg/mL histone H1 or 50 μM of the peptide ERMRPRKRQGSVRRRV (SEQ ID No. 20),” for “mg/mL myelin basic protein,”

Sequence of PI3K P110δ (O00329 whole entry, the tested form may be a part): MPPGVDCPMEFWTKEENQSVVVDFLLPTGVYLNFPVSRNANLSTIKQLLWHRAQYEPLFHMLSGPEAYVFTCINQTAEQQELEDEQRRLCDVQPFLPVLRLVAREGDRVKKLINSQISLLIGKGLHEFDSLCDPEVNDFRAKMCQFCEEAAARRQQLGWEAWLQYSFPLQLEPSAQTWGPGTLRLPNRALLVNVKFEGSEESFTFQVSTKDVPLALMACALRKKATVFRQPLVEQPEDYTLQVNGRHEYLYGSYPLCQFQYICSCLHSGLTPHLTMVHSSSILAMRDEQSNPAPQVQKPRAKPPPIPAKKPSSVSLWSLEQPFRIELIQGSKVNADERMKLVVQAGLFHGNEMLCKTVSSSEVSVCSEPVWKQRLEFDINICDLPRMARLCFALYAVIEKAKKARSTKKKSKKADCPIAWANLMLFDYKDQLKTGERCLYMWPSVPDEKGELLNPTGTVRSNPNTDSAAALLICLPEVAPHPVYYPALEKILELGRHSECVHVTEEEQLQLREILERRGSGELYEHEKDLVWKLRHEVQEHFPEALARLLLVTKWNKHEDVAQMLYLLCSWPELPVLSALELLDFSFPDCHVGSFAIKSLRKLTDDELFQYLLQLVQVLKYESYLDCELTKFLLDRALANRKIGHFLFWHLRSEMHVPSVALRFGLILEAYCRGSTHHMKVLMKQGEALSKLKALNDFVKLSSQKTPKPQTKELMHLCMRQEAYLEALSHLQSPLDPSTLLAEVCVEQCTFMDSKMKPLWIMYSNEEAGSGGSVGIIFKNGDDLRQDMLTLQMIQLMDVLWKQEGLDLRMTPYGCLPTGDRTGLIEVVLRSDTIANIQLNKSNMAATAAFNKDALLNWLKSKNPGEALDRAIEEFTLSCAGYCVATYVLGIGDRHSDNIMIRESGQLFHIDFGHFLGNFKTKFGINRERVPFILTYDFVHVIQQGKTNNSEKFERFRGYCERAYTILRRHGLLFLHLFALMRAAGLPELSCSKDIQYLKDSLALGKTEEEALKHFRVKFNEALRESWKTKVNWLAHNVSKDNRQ
Sequence of PI3K P110δ (P27986 whole entry partner, the tested form may be a part): as the sequence (P27986 whole entry partner, species assumed) above

Dend 10-10(4) whose RSKAKNPLYR peptides are entirely D-amino acids and pegylated with two ethylene glycol units [Dend 10-10(4)DP]
Percentage (%) kinase inhibition PI3K P110δ (PI3K P110δ; dendrimer conc. 1 μM): 39% | Percentage (%) kinase inhibition PI3K P110δ (PI3K P110δ; dendrimer conc. 2 μM): 56% | Percentage (%) kinase inhibition PI3K P110δ (PI3K P110δ; dendrimer conc. 250 nm): 9% | Percentage (%) kinase inhibition PI3K P110δ (PI3K P110δ; dendrimer conc. 500 nm): 25% | PI3K beta % inhibition (PI3K beta; 20 μM final concentration): approx. 92% | Percentage (%) kinase inhibition PI3K P110β (PI3K beta; dendrimer conc. 1 μM): 39% | Percentage (%) kinase inhibition PI3K P110β (PI3K beta; dendrimer conc. 2 μM): 53% | Percentage (%) kinase inhibition PI3K P110β (PI3K beta; dendrimer conc. 250 nm): 28% | Percentage (%) kinase inhibition PI3K P110β (PI3K beta; dendrimer conc. 500 nm): 34% | % Kinase inhibition ERK2 (human ERK2; 20 μM, relative to control): 37% | inhibition of proliferation of HT29 cells [1]: substantially greater inhibition of proliferation | % Kinase inhibition PKC beta I (PKC beta I; 20 μM, relative to control): 98% | Percentage (%) kinase inhibition PKC beta I (PKC beta I; dendrimer conc. 1 μM): 80% | Percentage (%) kinase inhibition PKC beta I (PKC beta I; dendrimer conc. 2 μM): 96% | Percentage (%) kinase inhibition PKC beta I (PKC beta I; dendrimer conc. 250 nm): 19% | Percentage (%) kinase inhibition PKC beta I (PKC beta I; dendrimer conc. 500 nm): 35% | % Kinase inhibition PKC alpha (PKC alpha; 20 μM, relative to control): 98% | Percentage (%) kinase inhibition PKC alpha (PKC alpha; dendrimer conc. 1 μM): 83% | Percentage (%) kinase inhibition PKC alpha (PKC alpha; dendrimer conc. 2 μM): 98% | Percentage (%) kinase inhibition PKC alpha (PKC alpha; dendrimer conc. 250 nm): 23% | Percentage (%) kinase inhibition PKC alpha (PKC alpha; dendrimer conc. 500 nm): 45% | % Kinase inhibition PKC beta II (PKC beta II; 20 μM, relative to control): 83% | Percentage (%) kinase inhibition PKC beta II (PKC beta II; dendrimer conc. 1 μM): 82% | Percentage (%) kinase inhibition PKC beta II (PKC beta II; dendrimer conc. 2 μM): 95% | Percentage (%) kinase inhibition PKC beta II (PKC beta II; dendrimer conc. 250 nm): 22% | Percentage (%) kinase inhibition PKC beta II (PKC beta II; dendrimer conc. 500 nm): 44%

CC(C)C[C@H](NC(=O)[C@@H]1CCCN1C(=O)[C@H](CC(N)=O)NC(=O)[C@H](CCCCN)NC(=O)[C@H](C)NC(=O)[C@H](CCCCN)NC(=O)[C@H](CO)NC(=O)[C@@H](N)CCCNC(=N)N)C(=O)N[C@@H](Cc1ccc(O)cc1)C(=O)N[C@@H](CCCNC(=N)N)C(=O)NCCCC[C@H](NC(=O)[C@H](CCCCNC(=O)[C@H](CCCCNC(=O)[C@H](CCCNC(=N)N)NC(=O)[C@H](Cc1ccc(O)cc1)NC(=O)[C@H](CC(C)C)NC(=O)[C@@H]1CCCN1C(=O)[C@H](CC(N)=O)NC(=O)[C@H](CCCCN)NC(=O)[C@H](C)NC(=O)[C@H](CCCCN)NC(=O)[C@H](CO)NC(=O)[C@@H](N)CCCNC(=N)N)NC(=O)[C@H](CCCNC(=N)N)NC(=O)[C@H](Cc1ccc(O)cc1)NC(=O)[C@H](CC(C)C)NC(=O)[C@@H]1CCCN1C(=O)[C@H](CC(N)=O)NC(=O)[C@H](CCCCN)NC(=O)[C@H](C)NC(=O)[C@H](CCCCN)NC(=O)[C@H](CO)NC(=O)[C@@H](N)CCCNC(=N)N)NC(=O)[C@H](CCCCNC(=O)[C@H](CCCNC(=N)N)NC(=O)[C@H](Cc1ccc(O)cc1)NC(=O)[C@H](CC(C)C)NC(=O)[C@@H]1CCCN1C(=O)[C@H](CC(N)=O)NC(=O)[C@H](CCCCN)NC(=O)[C@H](C)NC(=O)[C@H](CCCCN)NC(=O)[C@H](CO)NC(=O)[C@@H](N)CCCNC(=N)N)NC(=O)[C@H](CCCNC(=N)N)NC(=O)[C@H](Cc1ccc(O)cc1)NC(=O)[C@H](CC(C)C)NC(=O)[C@@H]1CCCN1C(=O)[C@H](CC(N)=O)NC(=O)[C@H](CCCCN)NC(=O)[C@H](C)NC(=O)[C@H](CCCCN)NC(=O)[C@H](CO)NC(=O)[C@@H](N)CCCNC(=N)N)C(=O)NCCCC[C@H](NC(=O)[C@H](CCCCNC(=O)[C@H](CCCNC(=N)N)NC(=O)[C@H](Cc1ccc(O)cc1)NC(=O)[C@H](CC(C)C)NC(=O)[C@@H]1CCCN1C(=O)[C@H](CC(N)=O)NC(=O)[C@H](CCCCN)NC(=O)[C@H](C)NC(=O)[C@H](CCCCN)NC(=O)[C@H](CO)NC(=O)[C@@H](N)CCCNC(=N)N)NC(=O)[C@H](CCCCNC(=O)[C@H](CCCCNC(=O)[C@H](CCCNC(=N)N)NC(=O)[C@H](Cc1ccc(O)cc1)NC(=O)[C@H](CC(C)C)NC(=O)[C@@H]1CCCN1C(=O)[C@H](CC(N)=O)NC(=O)[C@H](CCCCN)NC(=O)[C@H](C)NC(=O)[C@H](CCCCN)NC(=O)[C@H](CO)NC(=O)[C@@H](N)CCCNC(=N)N)NC(=O)[C@H](CCCNC(=N)N)NC(=O)[C@H](Cc1ccc(O)cc1)NC(=O)[C@H](CC(C)C)NC(=O)[C@@H]1CCCN1C(=O)[C@H](CC(N)=O)NC(=O)[C@H](CCCCN)NC(=O)[C@H](C)NC(=O)[C@H](CCCCN)NC(=O)[C@H](CO)NC(=O)[C@@H](N)CCCNC(=N)N)NC(=O)[C@H](CCCCNC(=O)[C@H](CCCNC(=N)N)NC(=O)[C@H](Cc1ccc(O)cc1)NC(=O)[C@H](CC(C)C)NC(=O)[C@@H]1CCCN1C(=O)[C@H](CC(N)=O)NC(=O)[C@H](CCCCN)NC(=O)[C@H](C)NC(=O)[C@H](CCCCN)NC(=O)[C@H](CO)NC(=O)[C@@H](N)CCCNC(=N)N)NC(=O)[C@H](CCCNC(=N)N)NC(=O)[C@H](Cc1ccc(O)cc1)NC(=O)[C@H](CC(C)C)NC(=O)[C@@H]1CCCN1C(=O)[C@H](CC(N)=O)NC(=O)[C@H](CCCCN)NC(=O)[C@H](C)NC(=O)[C@H](CCCCN)NC(=O)[C@H](CO)NC(=O)[C@@H](N)CCCNC(=N)N)C(=O)NCCC(N)=O [Dend 10-10(4)]
inhibition at 1 µM (PI3K P110δ; dendrimer conc. 1 μM, read-out: Percentage (%) kinase inhibition PI3K P110δ): 56% | inhibition at 1 µM (PI3K beta; dendrimer conc. 1 μM, read-out: Percentage (%) kinase inhibition PI3K P110β): 61% | PIK3 beta % activity relative to control (PI3K beta; final concentration 50 μM): 83% | remaining activity at 50 µM (human ERK2; final concentration 50 μM, read-out: ERK2 % activity relative to control): 47% | dendrimer concentration required for total kill, HT29 cells [1]: 10 µM | inhibition of proliferation of HT29 cells [1]: inhibited | inhibition at 1 µM (PKC beta I; dendrimer conc. 1 μM, read-out: Percentage (%) kinase inhibition PKC beta I): 67% | inhibition at 1 µM (PKC alpha; dendrimer conc. 1 μM, read-out: Percentage (%) kinase inhibition PKC alpha): 78% | inhibition at 1 µM (PKC beta II; dendrimer conc. 1 μM, read-out: Percentage (%) kinase inhibition PKC beta II): 75%
